According to patent US4590166A, “Method for separating and measuring the amount of polar compounds and their metabolites in aqueous solutions” (priority 1983, dated 1986):

Experiments:
[1] = plasma levels of pyridostigmine in rats; type: in vivo, rat
Description: (§1) For animal studies, rats weighing 175-225 g were placed in metabolic cages and deprived of solid food for 14 hours. For urine studies they were hydrated by the administration of 2.5 ml per 100 g of warm water by stomach tube. This was repeated after 1 hour. An 80 μg aliquot of pyridostigmine in 0.2 ml water was injected intramuscularly into a hind limb. Urine free from feces was collected over a period of 24 hours. In blood studies a similar dose was administered intramuscularly. At selected intervals over a period of 1 hour blood specimens were collected from excised hearts.
(§2) The assay was applied to the quantitation of pyridostigmine in urine and plasma of rats following the oral administration of 450 μg of pyridostigmine bromide per kg of body weight. One ml of urine and 1.5 ml of plasma samples were used for an assay. The urinary excretion of pyridostigmine in three rats over a 24-hour period was 60.0 and 65.4% of […]

[2] = extraction of pyridostigmine from basic solutions by organic solvents; type: physicochemical
[3] = urinary excretion of pyridostigmine in rats; type: in vivo, rat
Description: as §1, §2

For `CN(C)C(=O)Oc1ccc[n+](C)c1` [pyridostigmine], the “initial plasma concentrations relative to that of urine” value ([1]; average of three experiments for a single time point) was “about 1/25”, the concentration at 7 min ([1]; plasma, im, 0.08 mg, approximately 80 μg per rat, after 7 min) was 250 ng/mL and the concentration at 1 h ([1]; plasma, im, 0.08 mg, approximately 80 μg per rat, within 1 hour) was under 50 ng/mL. For the same molecule, the “extraction from basic solutions by organic solvents of various polarities” value [2] was “could not extract”, the “urinary excretion of pyridostigmine (% of the total dose injected)” value ([3]; over a 24-hour period, 450 μg/kg pyridostigmine bromide, 0.45 mg/kg, 1440 min) was 65.4% and the dose excreted at 48 h ([3]; rat, urine, im, 0.08 mg, between 24 and 48 hours, read-out: urinary excretion (% of the total dose injected)) was under 5%. For the same molecule, the dose excreted at 24 h ([3]; rat, urine, im, 0.45 mg/kg, over a 24-hour period, 450 μg/kg pyridostigmine bromide, read-out: urinary excretion of pyridostigmine (% of the total dose injected)) was 60%.
